Laboratory results taken from ChEMBL document CHEMBL4483862, “Open-source discovery of chemical leads for next-generation chemoprotective antimalarials” (2018).

Tested on: Plasmodium berghei
Test: Luciferase/luciferin-expressing antifolate-resistant parasites were used to infect a culture of HepG2 cells that were pre-incubated with compounds. Infected hepatocytes emit light due to the luciferase reaction. Assay results are presented as the percent inhibition of light emission compared to control. […]
Format: functional
Conditions: sporozoite; for IC90: read-out: LUCIFERASE INFECTION ASSAY - IC90

SMILES	IC90	other results
CC(NCC(O)COC1CCC(C(C)(C)C)CC1)c1ccccc1 (stereo not given)	> 8.92 µM	IC50 (PBLUC_HILL_SLOPE 10.1, PBLUC_R_SQUARED 0.42, read-out: LUCIFERASE INFECTION ASSAY - IC50): 7.39 µM
c1ccc(-c2cc(N3CCCCC3)c3ccccc3n2)nc1	> 11.4 µM	IC50 (PBLUC_HILL_SLOPE 9.83, PBLUC_R_SQUARED 0.0291, read-out: LUCIFERASE INFECTION ASSAY - IC50): 10.3 µM
O=C(Nc1nc2ccccc2[nH]1)c1cc(-c2ccccn2)nc2ccccc12	9.7 µM	IC50 (PBLUC_HILL_SLOPE 9.86, PBLUC_R_SQUARED 0.717, read-out: LUCIFERASE INFECTION ASSAY - IC50): 7.76 µM
N#CC(C#N)=NNc1ccc(F)c(F)c1F	14.5 µM	IC50 (PBLUC_HILL_SLOPE 9.99, PBLUC_R_SQUARED 0.46, read-out: LUCIFERASE INFECTION ASSAY - IC50): 11.6 µM
O=c1c2ccccc2oc2nc(-c3ccccc3)n(Cc3ccccc3)c(=O)c12	4.41 µM	IC50 (PBLUC_HILL_SLOPE 10.1, PBLUC_R_SQUARED 0.696, read-out: LUCIFERASE INFECTION ASSAY - IC50): 3.55 µM
COc1ccc(C2(c3ccc(OC)cc3)NC(=O)N(CC(=O)c3cc(C)n(C4CC4)c3C)C2=O)cc1	> 10 µM	IC50 (PBLUC_HILL_SLOPE 10.1, PBLUC_R_SQUARED 0.388, read-out: LUCIFERASE INFECTION ASSAY - IC50): 8.48 µM
O=c1c(Cl)c(NCC(c2ccco2)N2CCCCC2)cnn1-c1nc2ccccc2[nH]1 (stereo not given)	> 10 µM	IC50 (PBLUC_HILL_SLOPE 10.1, PBLUC_R_SQUARED 0.23, read-out: LUCIFERASE INFECTION ASSAY - IC50): 8.87 µM
Cc1c(C(=O)OCC(=O)c2ccc(OC(F)F)cc2)sc2nc3n(c(=O)c12)CCC3	9.86 µM	IC50 (PBLUC_HILL_SLOPE 10.3, PBLUC_R_SQUARED 0.714, read-out: LUCIFERASE INFECTION ASSAY - IC50): 7.97 µM
Cn1c(N)c(C(=O)c2cccc(S(=O)(=O)N3CCc4ccccc43)c2)c(=O)[nH]c1=O	> 10 µM	IC50 (PBLUC_HILL_SLOPE 10, PBLUC_R_SQUARED 0.0166, read-out: LUCIFERASE INFECTION ASSAY - IC50): > 10 µM
COc1ccc(OC)c(CN2CCN(c3nn4cc(-c5ccccc5)nc4s3)CC2)c1	> 10 µM	IC50 (PBLUC_HILL_SLOPE 9.65, 2.13, PBLUC_R_SQUARED 0.339, 0.240, read-out: LUCIFERASE INFECTION ASSAY - IC50): 6.69 µM
OCc1ccc(-c2cn3c(-c4cccc(OC(F)(F)F)c4)cnc3cn2)cc1	4.85 µM	IC50 (PBLUC_HILL_SLOPE 9.63, PBLUC_R_SQUARED 0.631, read-out: LUCIFERASE INFECTION ASSAY - IC50): 3.86 µM
N=C1NC(=Nc2ccc(Cl)c(Cl)c2)c2ccccc21	> 10 µM	IC50 (PBLUC_HILL_SLOPE 9.86, PBLUC_R_SQUARED 0.113, read-out: LUCIFERASE INFECTION ASSAY - IC50): 9.53 µM
N#CC1=C2Sc3ccccc3N2C(O)(C(F)(F)F)C(C(=O)C(F)(F)F)=C1 (stereo not given)	4.76 µM	IC50 (PBLUC_HILL_SLOPE 9.79, 8.06, PBLUC_R_SQUARED 0.178, 0.335, read-out: LUCIFERASE INFECTION ASSAY - IC50): 3.71 µM
CCN(CC)CCCNS(=O)(=O)c1c(C)n[nH]c1C	> 10 µM	IC50 (PBLUC_HILL_SLOPE 10.1, PBLUC_R_SQUARED 0.0336, read-out: LUCIFERASE INFECTION ASSAY - IC50): > 10 µM
CNc1snc(C)c1C(=O)NCC(c1cccs1)c1c[nH]c2ccccc12 (stereo not given)	9.68 µM	IC50 (PBLUC_HILL_SLOPE 9.74, PBLUC_R_SQUARED 0.4, read-out: LUCIFERASE INFECTION ASSAY - IC50): 7.72 µM
CC1CCN(Cc2nc(SC3CCCC3)c3c4c(sc3n2)CCC4)CC1	> 10 µM	IC50 (PBLUC_HILL_SLOPE 9.85, PBLUC_R_SQUARED 0.167, read-out: LUCIFERASE INFECTION ASSAY - IC50): 9.59 µM
CN(Cc1ccccc1NC(=O)c1ccc2c(c1)OCC(=O)N2)C1CCCCC1	> 10 µM	IC50 (PBLUC_HILL_SLOPE 10.4, PBLUC_R_SQUARED 0.15, read-out: LUCIFERASE INFECTION ASSAY - IC50): 9.56 µM
COc1cncc(-c2cc(Nc3ccc(Oc4ccccc4)cc3)ncn2)c1	> 8.91 µM	IC50 (PBLUC_HILL_SLOPE 10.3, PBLUC_R_SQUARED 0.501, read-out: LUCIFERASE INFECTION ASSAY - IC50): 7.76 µM
O=C(CCCNC(=O)c1ccsc1)NNC(=O)c1ccccc1O	> 10 µM	IC50 (PBLUC_HILL_SLOPE 9.95, PBLUC_R_SQUARED 0.0276, read-out: LUCIFERASE INFECTION ASSAY - IC50): > 10 µM
O=C1OC(C=NC23CC4CC(CC(C4)C2)C3)c2ccccc21 (stereo not given)	> 11.2 µM	IC50 (PBLUC_HILL_SLOPE 9.77, PBLUC_R_SQUARED 0.255, read-out: LUCIFERASE INFECTION ASSAY - IC50): 9.81 µM

SMILES	IC90	other results
Cc1c(-n2c(SCn3nnc4ccccc4c3=O)nc3ccccc3c2=O)c(=O)n(-c2ccccc2)n1C	> 10 µM	IC50 (PBLUC_HILL_SLOPE 10.1, PBLUC_R_SQUARED 0.287, read-out: LUCIFERASE INFECTION ASSAY - IC50): 9.23 µM
COc1cc(-c2cc(-c3ccccc3F)cnc2N)ccc1O	4.23 µM	IC50 (PBLUC_HILL_SLOPE 10.3, PBLUC_R_SQUARED 0.764, read-out: LUCIFERASE INFECTION ASSAY - IC50): 3.41 µM
COc1cc(-c2cc(-c3ccc(F)cc3)cnc2N)ccc1O	4.78 µM	IC50 (PBLUC_HILL_SLOPE 9.98, PBLUC_R_SQUARED 0.631, read-out: LUCIFERASE INFECTION ASSAY - IC50): 3.84 µM
Clc1ccc(-c2cnc3cnc(-c4ccccc4)cn23)cc1	4.82 µM	IC50 (PBLUC_HILL_SLOPE 10.1, PBLUC_R_SQUARED 0.74, read-out: LUCIFERASE INFECTION ASSAY - IC50): 3.88 µM
COCCNC(=S)Nc1ccccc1CC(c1c[nH]c2ccccc12)c1c[nH]c2ccccc12	> 10 µM	IC50 (PBLUC_HILL_SLOPE 10.3, PBLUC_R_SQUARED 0.121, read-out: LUCIFERASE INFECTION ASSAY - IC50): 9.41 µM
CCCC(=O)Nc1ccc(C(=O)C(C)SC2=NN/C(=C3\C=Nc4ccccc43)N2c2ccc(OCC)cc2)cc1 (stereo not given)	> 10 µM	IC50 (PBLUC_HILL_SLOPE 9.99, PBLUC_R_SQUARED 0.53, read-out: LUCIFERASE INFECTION ASSAY - IC50): 8.08 µM
CCn1c2ccc(C(=O)N/N=C/c3cn(-c4ccccc4)nc3-c3ccc(OC(F)F)cc3)cc2c[n+]1C	> 10 µM	IC50 (PBLUC_HILL_SLOPE 9.98, PBLUC_R_SQUARED 0.817, read-out: LUCIFERASE INFECTION ASSAY - IC50): 8.1 µM
COc1ccc(Cc2nn3c(C(=S)NCCCN4CCOCC4)c(-c4ccc(Cl)cc4)c4c3n2CCCC4)cc1	> 10 µM	IC50 (PBLUC_HILL_SLOPE 10, PBLUC_R_SQUARED 0.392, read-out: LUCIFERASE INFECTION ASSAY - IC50): 8.06 µM
CC(C)(C)c1ccccc1NC(=O)Nc1nc(C(N)Cc2ccc(C(F)(F)F)cc2)cs1 (stereo not given)	3.44 µM	IC50 (PBLUC_HILL_SLOPE 9.7, PBLUC_R_SQUARED 0.271, read-out: LUCIFERASE INFECTION ASSAY - IC50): 2.74 µM
CC(C)(O)C#Cc1ccc(/C=N/Nc2ccc(I)cc2)cc1	> 8.16 µM	IC50 (PBLUC_HILL_SLOPE 9.96, PBLUC_R_SQUARED 0.415, read-out: LUCIFERASE INFECTION ASSAY - IC50): 7.16 µM
Cc1[nH]c2ccc(F)cc2c(=O)c1I	1.32 µM	IC50 (PBLUC_HILL_SLOPE 10, PBLUC_R_SQUARED 0.604, read-out: LUCIFERASE INFECTION ASSAY - IC50): 1.06 µM
Cc1cnc(NC(=O)Cc2ccc3c(c2)CCC(C)(C)O3)s1	4.6 µM	IC50 (PBLUC_HILL_SLOPE 9.94, PBLUC_R_SQUARED 0.592, read-out: LUCIFERASE INFECTION ASSAY - IC50): 3.68 µM
Cn1nc(SCC(=O)NN)c(=O)n(C)c1=O	3.54 µM	IC50 (PBLUC_HILL_SLOPE 9.87, PBLUC_R_SQUARED 0.424, read-out: LUCIFERASE INFECTION ASSAY - IC50): 2.84 µM
CC(=O)NC(C)CCc1ccc(-c2csc(-c3ccc(NC(=O)C4CC4)cc3)n2)cc1 (stereo not given)	0.146 µM	IC50 (PBLUC_HILL_SLOPE 9.6, PBLUC_R_SQUARED 0.721, read-out: LUCIFERASE INFECTION ASSAY - IC50): 0.116 µM
Nc1ccc(-c2cn3c(-c4cccc(OC(F)(F)F)c4)cnc3cn2)cn1	4.23 µM	IC50 (PBLUC_HILL_SLOPE 9.99, PBLUC_R_SQUARED 0.381, read-out: LUCIFERASE INFECTION ASSAY - IC50): 3.39 µM
O=C1N(Cc2ccccn2)C(=O)C2(CCN(C3CCc4ccccc4C3)CC2)N1Cc1ccccc1 (stereo not given)	> 6.87 µM	IC50 (PBLUC_HILL_SLOPE 10, PBLUC_R_SQUARED 0.136, read-out: LUCIFERASE INFECTION ASSAY - IC50): 6.39 µM
Cc1cc(=O)n2nc(CSc3nc4ccc(Cl)cc4c(=O)n3CC(C)C)sc2n1	4.07 µM	IC50 (PBLUC_HILL_SLOPE 10, PBLUC_R_SQUARED 0.71, read-out: LUCIFERASE INFECTION ASSAY - IC50): 3.27 µM
COc1cc(-c2cnc(N)c(-c3ccc(F)c(Cl)c3)c2)ccc1O	> 9.57 µM	IC50 (PBLUC_HILL_SLOPE 10.3, PBLUC_R_SQUARED 0.243, read-out: LUCIFERASE INFECTION ASSAY - IC50): 8.4 µM
COc1ccc2c(c1)C(=O)/C(=C\c1ccc(OCc3nccn3C)cc1)CO2	> 10 µM	IC50 (PBLUC_HILL_SLOPE 10.1, PBLUC_R_SQUARED 0.104, read-out: LUCIFERASE INFECTION ASSAY - IC50): 8.44 µM
COC(=O)c1noc(C)c1-c1ccnn1C(=O)Nc1cccc(Cl)c1	8.47 µM	IC50 (PBLUC_HILL_SLOPE 10.3, PBLUC_R_SQUARED 0.543, read-out: LUCIFERASE INFECTION ASSAY - IC50): 6.84 µM
